As a reminder, the logP is a log measure of how a compound divides between an organic and an aqueous phase. A high value points to higher lipophilicity.

In turn, `C[C@H]1CCCC[C@@]1(c1cccs1)N1CCCCC1` yielded a lipophilicity (logP) of 7.29.
Consider `c1ccc(C2(N3CCCCC3)CCCCC2)cc1`, for which the lipophilicity (logP) came out at 5.74.
Regarding `C[C@H]1CCCC[C@@]1(c1ccccc1)N1CCCCC1`, the logP stood at 6.75.
`C[C@H]1CCC[C@](c2ccccc2)(N2CCCCC2)C1` yielded a logP of 5.86.
To `CC(C)(C)C1CCC(c2ccccc2)(N2CCCCC2)CC1` (stereo not given) belongs 6.67; to `c1csc(C2(N3CCCCC3)CCCCC2)c1`, 6.02; to `C[C@@H]1CC(C)(C)C[C@](c2ccccc2)(N2CCCCC2)C1`, 6.35.
To `CO[C@@H]1CCCC[C@]1(c1cccs1)N1CCCCC1` belongs 4.89; to `CO[C@H]1CCCC[C@@]1(c1ccccc1)N1CCCCC1`, 4.73; to `CC1CCC(c2ccccc2)(N2CCCCC2)CC1` (stereo not given), 5.66.

Values taken from the SangsterLogP compilation.
